According to paper PMC11969537 (ACS Chemical Neuroscience, 2025):

Target: cathepsin B (Mus musculus, UniProt P10605)
Assay: fluorogenic protease assay with Z-Phe-Arg-AMC at pH […]
Format: biochemical

Chain of cathepsin B (P10605 80-333): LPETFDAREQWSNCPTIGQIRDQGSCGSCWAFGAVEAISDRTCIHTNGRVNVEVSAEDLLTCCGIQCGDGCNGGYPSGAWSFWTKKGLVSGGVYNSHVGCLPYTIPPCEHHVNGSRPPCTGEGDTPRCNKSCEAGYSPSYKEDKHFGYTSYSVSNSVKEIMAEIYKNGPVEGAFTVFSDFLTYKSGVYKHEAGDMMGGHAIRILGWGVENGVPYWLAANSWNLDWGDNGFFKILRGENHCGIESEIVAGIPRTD

IC50: 0.025 µM
Structure (SMILES): Cc1cccc(C)c1C(=O)OCC(=O)[C@H](CCCCN)NC(=O)[C@H](CCCNC(=N)N)NC(=O)OCc1ccccc1 [Z-Arg-Lys-AOMK]
